Assay results reported in BigSolDB 2.1.

CC(=O)Oc1ccc(C(c2ccc(OC(C)=O)cc2)c2ccccn2)cc1
solubility (mole fraction)
Settings | 278.15 K | 283.15 K | 288.15 K | 293.15 K | 298.15 K | 303.15 K | 308.15 K | 313.15 K | 318.15 K | 323.15 K
in ethanol | 0.000239 | 0.000333 | 0.000452 | 0.000618 | 0.000835 | 0.0011 | 0.00145 | 0.00192 | 0.0025 | 0.00322
in isopropanol | 0.000113 | 0.000162 | 0.000225 | 0.000311 | 0.000425 | 0.000579 | 0.000777 | 0.00104 | 0.00139 | 0.00179
in methanol | 0.000551 | 0.000716 | 0.000931 | 0.00119 | 0.0015 | 0.0019 | 0.00239 | 0.00292 | 0.00364 | 0.00449
in water | 9.39e-08 | 1.13e-07 | 1.35e-07 | 1.62e-07 | 1.91e-07 | 2.25e-07 | 2.64e-07 | 3.08e-07 | 3.57e-07 | 4.13e-07
